Experimental data: patent publication US10398785B2, “Pharmaceutical compositions containing taxane-cyclodextrin complexes, method of making and methods of use” (MERIDIAN LAB, priority 2015, dated 2019)

Experiment: Accelerated aging stability study at 40° C. for eleven days (impurities by HPLC, USP35)
Format: physicochemical
Settings: in the liquid pharmaceutical composition throughout 11 days of accelerated aging at 40° C.
Description: A liquid pharmaceutical composition as described above, comprising ˜10 mg/mL docetaxel was diluted and subjected to accelerated aging at 40° C. for eleven days. The levels of impurities as specified by USP35 (United States Pharmacopeia 35) for taxane compositions were analyzed by HPLC at regular intervals. Stability was tested at 6 hours on day 0. Impurity levels in the liquid pharmaceutical compositions were compared to the allowable level according to the USP35 standard.

Concentration of docetaxel: 9520 µg/mL
SMILES: CC(=O)O[C@@]12CO[C@@H]1C[C@H](O)[C@@]1(C)C(=O)[C@H](O)C3=C(C)[C@@H](OC(=O)[C@H](O)[C@@H](NC(=O)OC(C)(C)C)c4ccccc4)C[C@@](O)([C@@H](OC(=O)c4ccccc4)[C@H]21)C3(C)C [docetaxel]
